We go through ten compounds from patent US20130203718A1 (priority 2010, published 2013).

The target in one data set is T1, hPRB (Homo sapiens, UniProt P06401).
T1 sequence (P06401 1-933): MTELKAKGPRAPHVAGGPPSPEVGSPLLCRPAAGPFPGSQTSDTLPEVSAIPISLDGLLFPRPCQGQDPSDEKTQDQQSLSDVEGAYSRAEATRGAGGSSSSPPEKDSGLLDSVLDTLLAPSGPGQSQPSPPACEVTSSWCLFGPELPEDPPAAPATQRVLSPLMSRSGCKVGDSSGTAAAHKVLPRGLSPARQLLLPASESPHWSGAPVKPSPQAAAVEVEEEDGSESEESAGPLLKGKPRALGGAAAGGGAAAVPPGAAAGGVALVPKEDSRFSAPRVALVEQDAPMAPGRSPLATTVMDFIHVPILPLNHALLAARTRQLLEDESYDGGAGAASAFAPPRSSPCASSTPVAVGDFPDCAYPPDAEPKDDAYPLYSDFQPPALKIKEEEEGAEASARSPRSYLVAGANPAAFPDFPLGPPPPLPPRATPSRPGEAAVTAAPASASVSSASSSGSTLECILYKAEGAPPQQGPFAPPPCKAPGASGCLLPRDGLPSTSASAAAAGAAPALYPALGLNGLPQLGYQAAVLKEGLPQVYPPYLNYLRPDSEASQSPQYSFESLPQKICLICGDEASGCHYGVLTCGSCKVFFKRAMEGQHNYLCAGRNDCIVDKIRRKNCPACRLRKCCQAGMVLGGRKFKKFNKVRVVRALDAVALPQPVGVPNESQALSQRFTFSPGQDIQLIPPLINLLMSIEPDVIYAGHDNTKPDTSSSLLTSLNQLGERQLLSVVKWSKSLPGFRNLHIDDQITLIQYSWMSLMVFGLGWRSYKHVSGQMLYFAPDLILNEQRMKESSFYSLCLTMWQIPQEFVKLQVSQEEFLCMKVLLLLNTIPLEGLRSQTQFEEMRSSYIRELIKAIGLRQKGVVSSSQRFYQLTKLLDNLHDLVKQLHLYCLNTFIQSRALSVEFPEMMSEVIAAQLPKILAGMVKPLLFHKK
Description: PR transactivation assay (GRE2-Luc) in HEK293T cells transiently expressing hPRB. The class given is cell-based. More on the design: expressed in transfected cells; host or cells: HEK 293T. The following applies: APRn 1 μM. As to the method: PR Transactivation Assays in HEK 293T.
HEK 293T cells were routinely cultured in a high-glucose DMEM medium (Invitrogene, Cergy Pontoise, France), 20 mM HEPES, 2 mM glutamine, 1× non essential amino acids, 100 U/mL penicillin and 100 μg/mL streptomycin supplemented with 10% foetal calf serum (FCS) in a humidified atmosphere at 37° C. and with 5% CO2. One day before transfection, the cells were seeded at 3×10^6 cells/[…] diameter culture Petri dish and cultured overnight in the same medium. Six hours before transfection, the FCS supplemented medium was replaced by the same medium supplemented with 10% dextran-charcoal treated FCS. Transfections were carried out using the calcium phosphate precipitation method. The calcium phosphate precipitate was prepared with 0.5 μg pchPRB (Petit-Topin, et al Mol Pharmacol, 2009, 75, 1317), 7 μg reporter vector (GRE2-Luc from A. Biola-Vidamment and M. Pallardy) and 1 μg of pcβgal for an internal transfection control, in 1 mL 140 mM NaCl, 0.75 mM Na2HPO4, 25 mM HEPES, 125 mM CaCl2 pH 7.05 and added to the cells 30 minutes later. After 16 h incubation, the transfected cells were washed with PBS containing 2.5 mM EDTA, trypsinized and pooled. The transfected cells were replated in 24-well plates (100.000 transfected cells/well). […] Cells were lysed in 300 μl PBS 1×, 25 mM glycylglycine, 4 mM EDTA, 15% glycerol, 1% triton X-100, 15 mM MgSO4, pH 7.8 supplemented with 2 mM β-mercaptoethanol. The luciferase activities were quantified by using a Mithras LB940 reader microplates (Berthold).
The APRn “agonist efficacy” was determined from the following formula:
Agonist efficacy=[luciferase activity]1/[luciferase activity]2×100
The APRn “antagonist efficacy” was calculated from the following formula:
Antagonist efficacy=100−[luciferase activity]1/[luciferase activity]2×100
The results are the mean±SEM of three to five independent experiments.
All the synthesized APRn were classified in 4 series depending on the nature of their C3 substituent (R1/R′1 groups). The first one (series 1) includes APRn with no C3 substituent (R1═R′1═H) whereas series 2, 3 and 4 are related to APRn bearing a methoxyl (R1═OMe), a hydroxyl (R1═OH) and a fluorine atom (R1═F), respectively. The agonist/antagonist activities of APRn were determined either in human HEK293T cells transiently expressing hPRB or in human MDA-MB-231 iPRAB cells conditionally expressing hPRB, by using a luciferase reporter gene placed under the control of a glucocorticoid response element (GRE2-Luc). The APRn “agonist efficacy” was determined from the luciferase activity measured in the presence of APRn (1 μM). […] The “agonist efficacy” and “antagonist efficacy” are expressed as defined in the biological protocols section.

For a further data set, the target named is T2, hGR (Homo sapiens, UniProt P04150).
T2 construct: expressed in transfected cells; host or cells: HEK 293T
T2 sequence (P04150 1-777): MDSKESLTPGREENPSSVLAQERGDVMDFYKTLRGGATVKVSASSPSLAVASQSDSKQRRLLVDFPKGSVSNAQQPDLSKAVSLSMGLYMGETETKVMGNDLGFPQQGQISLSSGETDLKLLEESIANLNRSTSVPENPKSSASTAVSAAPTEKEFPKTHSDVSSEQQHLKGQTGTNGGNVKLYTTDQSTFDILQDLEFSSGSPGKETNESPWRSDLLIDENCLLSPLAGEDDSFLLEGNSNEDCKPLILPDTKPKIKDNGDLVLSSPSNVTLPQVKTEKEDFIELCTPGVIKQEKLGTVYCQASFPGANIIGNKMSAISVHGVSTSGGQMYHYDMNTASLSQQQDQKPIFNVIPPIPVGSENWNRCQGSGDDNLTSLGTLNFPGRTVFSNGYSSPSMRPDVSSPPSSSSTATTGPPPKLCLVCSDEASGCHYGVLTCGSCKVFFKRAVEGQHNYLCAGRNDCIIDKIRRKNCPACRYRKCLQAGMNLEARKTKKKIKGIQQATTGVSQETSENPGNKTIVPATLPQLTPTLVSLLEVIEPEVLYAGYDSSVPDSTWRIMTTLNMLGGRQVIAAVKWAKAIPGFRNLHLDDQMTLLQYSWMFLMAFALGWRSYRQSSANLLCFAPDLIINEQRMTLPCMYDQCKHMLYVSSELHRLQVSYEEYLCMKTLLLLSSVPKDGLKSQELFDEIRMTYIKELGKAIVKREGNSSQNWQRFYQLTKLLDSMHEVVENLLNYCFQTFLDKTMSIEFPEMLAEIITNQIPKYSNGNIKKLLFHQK
Description: APRn selectivity: transactivation in HEK293T cells transiently expressing hGR. The format is cell-based. The following applies: HEK293T transiently expressing hGR, mean±SEM. As to the method:
Measurement of the APRn Selectivity in HEK 293T.
The HEK-293T cells were cultured and transfected according to the method described above for the PR transactivation assays. The expression vectors pcDNA-hAR, kindly provided by G. A. Coetzee, pchGR (Hellal-Levy, C et al. FEBS Lett 1999, 464, 9), and pchMR (Fagart, J. et al. EMBO J. 1998, 17, 3317) were used for studying the ability of APRn to activate or inactivate the AR, GR and MR, respectively. For each transfection assays, 2 μg of the expression vector was used together with 7 μg of the GRE2-Luc reporter vector. Dihydrotestosterone (DHT), dexamethasone (Dex) and Aldosterone (Aldo) were selected as AR, GR and MR ligands, respectively. They were used at the concentration of 10^−9 M. The APRn agonist and antagonist efficacy for AR, GR and MR were measured as described above for PR. The results are the mean±SEM of three independent experiments.
Transfection assays were performed in HEK 293T cells by using expression vectors for the hAR, hGR and hMR and the GRE2-Luc reporter used for the PR transactivation assays.

The mark [1] stands for this setting: series 1 (no C3 substituent), HEK293T, FIG. 1.
Where [2] appears, read: series 2-4, stated for both HEK293T and MDA-MB-231 iPRAB cells, FIGS. 3-8.

A word on the melting point: it is the temperature, or range, at which the solid turns liquid.

On to `C[C@]12CCCC[C@@H]1CC[C@@H]1[C@@H]2CC[C@]2(C)C(=O)CC[C@@H]12` [APR-23, 5α-Androstan-17-one], for which the melting point was 120 to 121 °C. For the same compound, the “hPRB agonist/antagonist character (in words)” value at hPRB (setting [1]) was “full antagonists”.

`C#CC(C)(O)[C@H]1CC[C@H]2[C@@H]3CC=C4C[C@@H](OC)CC[C@]4(C)[C@H]3CC[C@]12C` (stereo partly drawn) [APR-31, 20-Ethynyl-3β-methoxypregn-5-en-20-ol] displayed a melting point of 175 to 176 °C. For the same compound, on hPRB (setting [2]), the “hPRB agonist/antagonist character (in words)” value was “antagonist character without any agonist activity”.

`C#C[C@]1(O)CCC2C3CC[C@H]4CCCC[C@]4(C)C3CC[C@@]21C` (stereo partly drawn) [APR-32, 17α-Ethynyl-5α-androstan-17β-ol] gave a melting point of 152 to 153 °C. Further, at hPRB (setting [1]), the “hPRB agonist/antagonist character (in words)” value is “full antagonists”.

Compound `C[C@]12CC[C@H](F)CC1=CC[C@@H]1[C@@H]2CC[C@]2(C)C(=O)CC[C@@H]12` [APR-33, 3β-Fluoroandrost-5-en-17-one] yielded a melting point of 155 to 156 °C. The “hPRB agonist/antagonist character (in words)” value on hPRB (setting [2]) is reported as “efficient hPRB antagonists”.

Take `C#C[C@]1(O)CCC2C3CC=C4C[C@@H](F)CC[C@]4(C)C3CC[C@@]21C` (stereo partly drawn) [APR-34, 17α-Ethynyl-3β-fluoro-androst-5-en-17β-ol]: the melting point is 219 to 220 °C. Also, the “hPRB agonist/antagonist character (in words)” value on hPRB (setting [2]) is recorded as “efficient hPRB antagonists”.

`C[C@]12CC[C@H](F)C[C@@H]1CC[C@@H]1[C@@H]2CC[C@]2(C)C(=O)CC[C@@H]12` [APR-35, 3β-Fluoro-5α-androstan-17-one] registered a melting point of 126 to 127 °C. For the same compound, the “hPRB agonist/antagonist character (in words)” value at hPRB (setting [2]) is recorded as “efficient hPRB antagonists”.

As to `C#C[C@]1(O)CCC2C3CC[C@H]4C[C@@H](F)CC[C@]4(C)C3CC[C@@]21C` (stereo partly drawn) [APR-36, 17α-Ethynyl-3β-fluoro-5α-androstan-17β-ol], the melting point lay in the range of 225 to 226 °C. Moreover, the “hPRB agonist/antagonist character (in words)” value at hPRB (setting [2]) was “efficient hPRB antagonists”.

Regarding `CC(=O)O[C@H]1CCC2C3CC=C4C[C@@H](F)CC[C@@H]4C3CC[C@@]21C` (stereo partly drawn) [APR-45, 17β-Acetoxy-3β-fluoro-19-nor-androst-5-ene], the melting point is 104 to 105 °C. Moreover, the “hPRB agonist/antagonist character (in words)” value on hPRB (setting [2]) is “efficient hPRB antagonists”.

Turning to `C[C@]12CCC3C(CC=C4C[C@@H](F)CC[C@@H]43)C1CC[C@@H]2O` (stereo partly drawn) [APR-46, 31-Fluoro-19-nor-androst-5-en-17β-ol], the melting point lay within 121 to 122 °C. At hPRB (setting [2]), the “hPRB agonist/antagonist character (in words)” value was “efficient hPRB antagonists”.

For `C#C[C@]1(O)CCC2C3CC=C4C[C@@H](F)CC[C@@H]4C3CC[C@@]21C` (stereo partly drawn) [APR-50, 17α-Ethynyl-3β-fluoro-19-nor-androst-5-en-17β-ol], the melting point is 149 to 150 °C. For the same compound, the “GR Antagonist efficacy (%)” value on hGR (dexamethasone 10^−9 M) was 7.4 ± 1.9%. The Emax at hGR (HEK-293T, read-out: GR Agonist efficacy (%)) stood at 0.25 ± 0.1%.
